In data set [1] the test system is Leishmania donovani. The data set can be described thus: Antileishmanial activity against axenic amastigotes of Leishmania donovani MHOM/SD/1962/1S-Cl2d infected in human THP1 cells assessed as parasite growth inhibition at 50 uM after 24 hrs by AlamarBlue viability assay. The data set is classed as functional. The following applies: read-out: GI. For orientation: Resazurin is reduced to fluorescent resorufin, in cell work by metabolically active cells.

Data set [2] is described as follows: Selectivity index, ratio of IC50 for human THP1 cells to IC50 for axenic amastigotes of Leishmania donovani MHOM/SD/1962/1S-Cl2d infected in human THP1 cells. As to conditions: read-out: Ratio IC50. It is filed as toxicity, cell-based, THP-1.
In data set [3] the test system is Leishmania donovani. The data set can be described thus: Antileishmanial activity against axenic amastigotes of Leishmania donovani MHOM/SD/1962/1S-Cl2d […] assessed as parasite growth inhibition after 24 hrs by AlamarBlue viability assay. The data set is classed as functional, organism-based.
Data set [4] can be described thus: Cytotoxicity against human THP1 cells after 48 hrs by AlamarBlue viability assay. As to conditions: THP-1, 48 h. It is filed as cell-based.
Data set [5] relates to Leishmania donovani. Briefly: Antileishmanial activity against axenic amastigotes of Leishmania donovani MHOM/SD/1962/1S-Cl2d infected in human THP1 cells assessed as parasite growth inhibition at 15 uM after 24 hrs by AlamarBlue viability assay. The data set is classed as functional. As to conditions: read-out: GI.
The test system of data set [6] is Trypanosoma cruzi. Briefly: Potency index, ratio of IC50 for benznidazole to IC50 for test compound against trypomastigote form of Trypanosoma cruzi Tulahuen C2C4 expressing LacZ gene infected in rat L6 cells. It is filed as functional.
Data set [7] relates to Leishmania donovani. The data set can be described thus: Selectivity for axenic amastigotes of Leishmania donovani MHOM/SD/1962/1S-Cl2d infected in human macrophages over axenic amastigotes of Leishmania donovani MHOM/SD/1962/1S-Cl2d infected in human THP1 cells. The data set is classed as functional, THP-1.
A further data set relates to L6. The data set can be described thus: Cytotoxicity against rat L6 cells after 72 hrs by AlamarBlue dye based fluorimetric method. The data set is classed as cell-based. As to conditions: L6, 72 h.
Data set [8] is described as follows: Selectivity index, ratio of IC50 for rat L6 cells to IC50 for Trypanosoma cruzi Tulahuen C2C4 amastigotes. The data set is classed as toxicity, cell-based. As to conditions: read-out: Ratio IC50.
The subject of data set [9] is Trypanosoma cruzi. Briefly: Antitrypanosomal activity against trypomastigote form of Trypanosoma cruzi Tulahuen C2C4 expressing LacZ gene infected in rat L6 cells after 96 hrs by photometric method. As to conditions: Tulahuen C2C4, L6, 96 h. The data set is classed as functional, organism-based.
Data set [10] relates to Leishmania donovani. Briefly: Antileishmanial activity against axenic amastigotes of Leishmania donovani MHOM/SD/1962/1S-Cl2d infected in human macrophages at 5 uM. It is filed as functional.
Data set [11] deals with Trypanosoma cruzi. The data set can be described thus: Antitrypanosomal activity against intracellular form of Trypanosoma cruzi. The data set is classed as functional, organism-based.
Data set [12] is described as follows: Selectivity index, ratio of IC50 for African green monkey Vero cells to IC50 for metacyclic form of Trypanosoma cruzi SN3. It is filed as toxicity, cell-based. The following applies: read-out: Ratio IC50.
In data set [13] the test system is Trypanosoma cruzi. Briefly: Antitrypanosomal activity against metacyclic form of Trypanosoma cruzi SN3 infected in African green monkey Vero cells after 72 hrs by Giemsa staining. It is filed as functional, organism-based.
Data set [14] deals with Leishmania donovani. The data set can be described thus: Antileishmanial activity against amastigotes of Leishmania donovani MHOM/SD/1962/1S-Cl2d infected in human THP1 cells assessed as parasite growth inhibition at 1 uM after 24 hrs by AlamarBlue viability assay. As to conditions: THP-1, 24 h.

Usually IC50 stands for the midpoint of a concentration-inhibition curve. What is called inhibition is the relative decrease from the control value, in per cent.

With `CC(C)c1ccc2c(c1)CC[C@H]1[C@](C)(CNC(=O)c3nccnc3C(=O)O)CCC[C@]21C`, the inhibition of growth at 50 µM in the data set with Leishmania donovani [1] stood at 9.4%.

With `C#CC(=O)NC[C@]1(C)CCC[C@]2(C)c3ccc(C(C)C)cc3CC[C@@H]12`, the selectivity ratio in [2] was less than 1. Besides, the IC50 was 4.1 µM in the data set with Leishmania donovani [3] and less than 3 µM in [4]. Besides, in the data set with Leishmania donovani [5], the inhibition of growth at 15 µM is 98.1%. Besides, in the data set on Leishmania donovani [1], the inhibition of growth at 50 µM was 99.8%.

As for `C=CC(=O)NC[C@]1(C)CCC[C@]2(C)c3ccc(C(C)C)cc3CC[C@@H]12`, the “Ratio IC50” value in the data set with Trypanosoma cruzi [6] is reported as 3.5. For the same molecule, the selectivity ratio amounted to 63 in data set [2], 6 with Leishmania donovani [7] and 58 in data set [8]. The IC50 in the data set with Leishmania donovani [3] was found to be 0.37 µM; in [4], 23.2 µM; in the data set with L6, 36.7 µM; in the data set on Trypanosoma cruzi [9] it was 0.6 µM. In addition, in the data set with Leishmania donovani [5], the inhibition of growth at 15 µM is 99.6%. The molecule further yielded an inhibition at 5 µM in the data set on Leishmania donovani [10] of 94.7%. The inhibition of growth at 50 µM in the data set with Leishmania donovani [1] stood at 99.8%.

For `CC(C)c1ccc2c(c1)CC[C@H]1[C@](C)(CNC(=O)c3ccccc3C(=O)O)CCC[C@]21C`, the inhibition of growth at 15 µM in the data set with Leishmania donovani [5] was 34.9%. In the data set with Leishmania donovani [1], the inhibition of growth at 50 µM amounted to 98.5%.

On to `CC(C)c1ccc2c(c1)CC[C@H]1[C@](C)(CNC(=O)CCC(=O)O)CCC[C@]21C`, for which, in the data set on Leishmania donovani [5], the inhibition of growth at 15 µM is 55%. Besides, the inhibition of growth at 50 µM in the data set with Leishmania donovani [1] turned out to be 98.1%.

As to `CCCC(=O)NC[C@]1(C)CCC[C@]2(C)c3ccc(C(C)C)cc3CC[C@@H]12`, the selectivity ratio in data set [2] is 11. The concentration for half-maximal inhibition (IC50) with Leishmania donovani [3] amounted to 5.1 µM; in [4], 56.3 µM. Also, in the data set with Leishmania donovani [5], the inhibition of growth at 15 µM stood at 73.2%. The inhibition of growth at 50 µM in the data set with Leishmania donovani [1] was found to be 96.6%.

Consider `CC(C)c1cc2c(c(O)c1O)[C@@]1(C)CCCC(C)(C)C1=C(O)C2=O` [14-DEOXYCOLEON U], for which, in the data set with Trypanosoma cruzi [11], the IC50 worked out at 25.7 µM.

In the case of `CC(C)c1ccc2c(c1)CC[C@H]1[C@](C)(CNC(=O)/C=C/c3ccccc3)CCC[C@]21C`, in the data set with Leishmania donovani [1], the inhibition of growth at 50 µM was 42.4%.

`CC(C)c1ccc2c(c1)CC[C@H]1[C@](C)(CNC(=O)/C=C\C(=O)O)CCC[C@]21C`: the selectivity ratio in data set [2] is 76; in data set [8] it was 4. Moreover, the IC50 in the data set on Leishmania donovani [3] was 1.9 µM; in [4], 145 µM; with L6 it was 33.5 µM; in the data set on Trypanosoma cruzi [9] it was 9.5 µM. For the same molecule, the inhibition of growth at 15 µM in the data set on Leishmania donovani [5] turned out to be 90.7%. The inhibition at 5 µM with Leishmania donovani [10] came out at 34.7%. Besides, in the data set with Leishmania donovani [1], the inhibition of growth at 50 µM came to 98.8%.

For the molecule `CC(C)c1ccc2c(c1)CC[C@H]1[C@](C)(CN)CCC[C@]21C`, the results for the IC50 in the data set with L6 and in the data set on Trypanosoma cruzi [9] were 6.5 µM and 7.4 µM, respectively. Also, the selectivity ratio in [8] worked out at 1. In the data set on Leishmania donovani [1], the inhibition of growth at 50 µM was determined as 68.7%.

`CC(=O)NC[C@]1(C)CCC[C@]2(C)c3ccc(C(C)C)cc3CC[C@@H]12`: the selectivity ratio was found to be 14 in [2] and 6 in data set [8]. Also, the IC50 with Leishmania donovani [3] is 2.4 µM; in data set [4], 33.3 µM; in the data set on L6, 24.3 µM; in the data set on Trypanosoma cruzi [9], 3.7 µM. The inhibition of growth at 15 µM in the data set with Leishmania donovani [5] came to 96%. Further, in the data set on Leishmania donovani [1], the inhibition of growth at 50 µM amounted to 98.5%.

Consider `COC(=O)[C@]1(C)CCC[C@]2(C)C3=C(CC[C@@H]12)C(=O)C(C(C)C)=CC3=O`, for which the selectivity ratio in [12] was 45. In the data set on Trypanosoma cruzi [13], this molecule showed a 50% inhibitory concentration (IC50) of 17.3 µM.

As to `C[C@@H]1[C@H](O)[C@@H](C)/C=C/C=C/C=C/C=C/C=C/C=C/C=C/[C@H](O[C@@H]2O[C@H](C)[C@@H](O)[C@H](N)[C@@H]2O)C[C@@H]2O[C@](O)(C[C@@H](O)C[C@@H](O)[C@H](O)CC[C@@H](O)C[C@@H](O)CC(=O)O[C@H]1C)C[C@H](O)[C@H]2C(=O)O` [AMPHOTERICIN B], the inhibition at 1 µM in the data set on Leishmania donovani [14] is greater than 90%.

With `CC(C)c1ccc2c(c1)CC[C@H]1[C@](C)(CNC(=O)/C=C/c3ccc([N+](=O)[O-])cc3)CCC[C@]21C`, the inhibition of growth at 50 µM with Leishmania donovani [1] came out at 42.7%.

In the case of `CC(C)c1ccc2c(c1)CC[C@H]1[C@](C)(CNC(=O)c3ccccc3)CCC[C@]21C`, the inhibition of growth at 15 µM in the data set with Leishmania donovani [5] stood at 56.3%. Moreover, in the data set with Leishmania donovani [1], the inhibition of growth at 50 µM came out at 95.7%.

As for `CC(C)c1ccc2c(c1)CC[C@H]1[C@](C)(CNC(=O)c3ccc[nH]3)CCC[C@]21C`, the selectivity ratio in data set [2] amounted to 10. The figures for the concentration for half-maximal inhibition (IC50) (in the data set on Leishmania donovani [3]; in data set [4]) were 3.2 µM and 33.3 µM, respectively. Further, the inhibition of growth at 15 µM in the data set on Leishmania donovani [5] turned out to be 90.6%. The inhibition of growth at 50 µM with Leishmania donovani [1] came out at 99.1%.

The values are drawn from ChEMBL document CHEMBL3804793, “Abietane-Type Diterpenoid Amides with Highly Potent and Selective Activity against Leishmania donovani and Trypanosoma cruzi” (J Nat Prod, 2016).
